The results in this text go back to patent US9856279B2 (AGIOS PHARMACEUTICALS, INC, priority 2011, dated 2018).

For one assay, the target named is IDH1 R132H (Homo sapiens, UniProt O75874, R132H). Briefly: Assay for IDH1 R132H inhibitors (NADPH/aKG, resazurin detection). Type of assay: biochemical. The following applies: enzyme assay of Example 12; read-out: IDH1R132H IC50. In a few lines:
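Read-out is resorufin fluorescence (Ex544/Em590) 5 min after adding a 30 μM resazurin detection mix. Before that, mutant enzyme (0.2 μg/ml in its mix) ran 50 min at room temperature with compound, 8 uM NADPH and 2 mM aKG (mix levels) in Tris pH 7.5 with NaCl, MgCl2, BSA.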
In general terms: Resazurin is reduced to fluorescent resorufin, in cell work by metabolically active cells.

Another assay concerns U87MG cells. Kind of assay: Cellular assay for IDH1m inhibitors: inhibition of 2-HG production (LC-MS, 48 hours) in U87MG cells. The following applies: Homo sapiens, U-87 MG, inhibition of 2-HG production, U87R132H cells; read-out: U87R132H IC50. Type of assay: cell-based. In a few lines:
(§1)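 HT1080 or U87MG cells were seeded at 5000/well in DMEM with 10% FBS, incubated overnight, then treated with compounds (0.2% DMSO final) for 48 h. Medium 2-HG was quantified by LC-MS, and IC50 was taken as the concentration reducing 2-HG by 50% versus DMSO control.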

The test system of the next assay is HT1080 cells. Briefly: Cellular assay for IDH1m inhibitors: inhibition of 2-HG production (LC-MS, 48 hours) in HT1080 cells. Type of assay: cell-based. The following applies: Homo sapiens, HT-1080; inhibition of 2-HG production, HT1080 cells; read-out: HT1080 IC50. In a few lines:
as §1

Chain of IDH1 R132H (O75874 whole entry R132H): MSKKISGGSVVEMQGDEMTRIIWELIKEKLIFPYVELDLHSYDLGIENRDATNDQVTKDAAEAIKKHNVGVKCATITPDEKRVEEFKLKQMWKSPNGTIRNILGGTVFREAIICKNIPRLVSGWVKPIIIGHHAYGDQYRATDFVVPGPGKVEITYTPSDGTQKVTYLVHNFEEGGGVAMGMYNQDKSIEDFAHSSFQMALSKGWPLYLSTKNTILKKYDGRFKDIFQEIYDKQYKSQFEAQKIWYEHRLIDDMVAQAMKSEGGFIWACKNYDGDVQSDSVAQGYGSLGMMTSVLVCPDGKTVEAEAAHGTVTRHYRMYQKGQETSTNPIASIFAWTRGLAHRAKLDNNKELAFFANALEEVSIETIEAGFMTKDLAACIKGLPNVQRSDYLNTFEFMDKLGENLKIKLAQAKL

For the compound `C=C(F)C(=O)Nc1cccc(-c2cc(C#N)c(N3CCN(C(=O)CCOC)[C@H](C)C3)nc2C2CC2)c1` [Compound 431, (R)—N-(3-(5-cyano-2-cyclopropyl-6-(4-(3-methoxypropanoyl)-3-methylpiperazin-1-yl)pyridin-3-yl)phenyl)-2-fluoroacrylamide], the IC50 at IDH1 R132H, in the assay with U87MG cells and in the assay on HT1080 cells was 500 to 1000 nM throughout.

In the case of `C=Cc1cc(Nc2cc(C#N)c(N3CCN(C(=O)C[C@@H]4CCO4)[C@H](C4CC4)C3)nc2C2CC2)ccn1` [Compound 774, 6-cyclopropyl-2-((R)-3-cyclopropyl-4-(2-((S)-oxetan-2-yl)acetyl)piperazin-1-yl)-5-((2-vinylpyridin-4-yl)amino)nicotinonitrile], the IC50 at IDH1 R132H, in the assay with U87MG cells and in the assay with HT1080 cells was < 500 nM throughout.

On to `C=Cc1cc(-c2cc(C#N)c(N3CCN(C(=O)CCOC)[C@H](C(C)C)C3)nc2C2CC2)ccn1` [Compound 631, (R)-2-cyclopropyl-6-(3-isopropyl-4-(3-methoxypropanoyl)piperazin-1-yl)-2′-vinyl-3,4′-bipyridine-5-carbonitrile], for which the IC50 at IDH1 R132H, in the assay with U87MG cells and in the assay on HT1080 cells was < 500 nM in each case.

Turning to `COCCC(=O)N1CCN(c2nc(C3CC3)c(-c3ccc(CNC(C)=O)cc3)c(C)c2C#N)C[C@H]1C` [Compound 340, (R)—N-(4-{5-cyano-2-cyclopropyl-6-[4-(3-methoxy-propionyl)-3-methyl-piperazin-1-yl]-4-methyl-pyridin-3-yl}-benzyl)-acetamide], the figures for the IC50 at IDH1 R132H, in the assay on U87MG cells and with HT1080 cells were < 500 nM, 500 to 1000 nM and 500 to 1000 nM, respectively.

With `COCCC(=O)N1CCN(c2nc(C3CC3)c(-c3cccc(N)c3)cc2C#N)C[C@H]1C` [Compound 285, (R)-5-(3-aminophenyl)-6-cyclopropyl-2-(4-(3-methoxypropanoyl)-3-methylpiperazin-1-yl)nicotinonitrile], the IC50 (in general, the concentration that gives 50% inhibition) at IDH1 R132H is < 500 nM; in the assay on U87MG cells, 1000 to 10000 nM; in the assay with HT1080 cells, 500 to 1000 nM.

Turning to `C=Cc1cc(-c2cc(C#N)c(N3CCN(C(=O)CCO)[C@H](C4CC4)C3)nc2C2CC2)nc(N)n1` [Compound 719, (R)-5-(2-amino-6-vinylpyrimidin-4-yl)-6-cyclopropyl-2-(3-cyclopropyl-4-(3-hydroxypropanoyl)piperazin-1-yl)nicotinonitrile], the half-maximal inhibitory concentration (IC50) on IDH1 R132H, with U87MG cells and with HT1080 cells was < 500 nM in each case.

In the case of `COCCC(=O)N1CCN(c2nc(C3CC3)c(OC(C)c3ccccc3)cc2C#N)C[C@H]1C` (stereo partly drawn) [Compound 277, 6-cyclopropyl-2-((R)-4-(3-methoxypropanoyl)-3-methylpiperazin-1-yl)-5-(1-phenylethoxy)nicotinonitrile], the IC50 is < 500 nM on IDH1 R132H, 1000 to 10000 nM in the assay on U87MG cells and 1000 to 10000 nM with HT1080 cells.

For `COCCC(=O)N1CCN(c2nc(C3CC3)c(-c3ccc(OC)c(F)c3)c(C)c2C#N)C[C@H]1C` [Compound 323, (R)-6-cyclopropyl-5-(3-fluoro-4-methoxy-phenyl)-2-[4-(3-methoxy-propionyl)-3-methyl-piperazin-1-yl]-4-methyl-nicotinonitrile], the figures for the IC50 at IDH1 R132H, with U87MG cells and with HT1080 cells were < 500 nM, 500 to 1000 nM and 500 to 1000 nM, respectively.

`N#Cc1cc(Oc2ccnc(Cl)c2)c(C2CC2)nc1N1CCN(C(=O)CCO)[C@H](C2CC2)C1` [Compound 694, (R)-5-(2-chloropyridin-4-yloxy)-6-cyclopropyl-2-(3-cyclopropyl-4-(3-hydroxypropanoyl)piperazin-1-yl) nicotinonitrile]: the half-maximal inhibitory concentration (IC50) is < 500 nM at IDH1 R132H, < 500 nM in the assay with U87MG cells and 500 to 1000 nM with HT1080 cells.

On to `C=Cc1ccc2c(-c3cc(C#N)c(N4CCN(C(=O)CCOC)[C@H](C)C4)nc3C3CC3)cccc2n1` [Compound 608, (R)-6-cyclopropyl-2-(4-(3-methoxypropanoyl)-3-methylpiperazin-1-yl)-5-(2-vinylquinolin-5-yl)nicotinonitrile], for which the IC50 at IDH1 R132H, with U87MG cells and with HT1080 cells was < 500 nM in each case.

Turning to `C=Cc1cc(-c2c(C3CC3)nc(N3CCN(C(=O)C[C@H]4CCO4)[C@H](C(C)C)C3)c(C#N)c2C)ccn1` [Compound 781, 2-cyclopropyl-6-((R)-3-isopropyl-4-(2-((R)-oxetan-2-yl)acetyl)piperazin-1-yl)-4-methyl-2′-vinyl-3,4′-bipyridine-5-carbonitrile], the IC50 at IDH1 R132H, with U87MG cells and in the assay with HT1080 cells was < 500 nM each time.

Take `C=Cc1ccc2ccc(-c3cc(C#N)c(N4CCN(C(=O)CCO)[C@H](C5CC5)C4)nc3C3CC3)cc2n1` [Compound 720, (R)-6-cyclopropyl-2-(3-cyclopropyl-4-(3-hydroxypropanoyl)piperazin-1-yl)-5-(2-vinylquinolin-7-yl) nicotinonitrile]: the IC50 at IDH1 R132H, in the assay on U87MG cells and with HT1080 cells was < 500 nM in each case.

Turning to `C=Cc1cc(-c2cc(C#N)c(N3CCN(C(=O)CCOC)[C@H](C4CC4)C3)nc2C2CC2)ncn1` [Compound 638, (R)-6-cyclopropyl-2-(3-cyclopropyl-4-(3-methoxypropanoyl)piperazin-1-yl)-5-(6-vinylpyrimidin-4-yl)nicotinonitrile], the IC50 on IDH1 R132H, in the assay with U87MG cells and with HT1080 cells was < 500 nM throughout.

Turning to `C=Cc1cc(-c2cc(C#N)c(N3CCN(C(=O)COC)[C@H](C4CC4)C3)nc2C2CC2)ccn1` [Compound 590, (R)-2-cyclopropyl-6-(3-cyclopropyl-4-(2-methoxyacetyl)piperazin-1-yl)-2′-vinyl-3,4′-bipyridine-5-carbonitrile], the IC50 on IDH1 R132H, in the assay with U87MG cells and in the assay with HT1080 cells was < 500 nM throughout.

Consider `C=Cc1cc(-c2c(C3CC3)nc(N3CCN(C(=O)CCO)[C@H](C)C3)c(C#N)c2C)ccn1` [Compound 654, (R)-2-cyclopropyl-6-(4-(3-hydroxypropanoyl)-3-methylpiperazin-1-yl)-4-methyl-2′-vinyl-[3,4′-bipyridine]-5-carbonitrile], for which the IC50 at IDH1 R132H, with U87MG cells and with HT1080 cells was < 500 nM throughout.

Turning to `COCCC(=O)N1CCN(c2nc(C3CC3)c(-c3ccsc3)c(C)c2C#N)C[C@H]1C` [Compound 270, (R)-6-cyclopropyl-2-(4-(3-methoxypropanoyl)-3-methylpiperazin-1-yl)-4-methyl-5-(thiophen-3-yl)nicotinonitrile], the IC50 lay in the range of 500 to 1000 nM at IDH1 R132H, 1000 to 10000 nM in the assay on U87MG cells and 1000 to 10000 nM with HT1080 cells.

With `C=CS(=O)(=O)N(c1cccc(-c2cc(C#N)c(N3CCN(C(=O)C4CC4)[C@H](C4CC4)C3)nc2C2CC2)c1)S(=O)(=O)C=C` [Compound 452, (R)—N-(3-(5-cyano-6-(4-(cyclopropanecarbonyl)-3-cyclopropylpiperazin-1-yl)-2-cyclopropylpyridin-3-yl)phenyl)-N-(vinylsulfonyl)ethenesulfonamide], the values for the concentration for half-maximal inhibition (IC50) on IDH1 R132H, in the assay with U87MG cells and in the assay on HT1080 cells were < 500 nM, 1000 to 10000 nM and 1000 to 10000 nM, respectively.

On to `C=Cc1cc(Nc2cc(C#N)c(N3CCN(C(=O)CCO)[C@H](C)C3)nc2C2CC2)c2ccncc2n1` [Compound 698, (R)-6-cyclopropyl-2-(4-(3-hydroxypropanoyl)-3-methylpiperazin-1-yl)-5-((2-vinyl-1,7-naphthyridin-4-yl)amino)nicotinonitrile], for which the IC50 at IDH1 R132H, with U87MG cells and with HT1080 cells was < 500 nM throughout.

Consider `C=Cc1cc(-c2cc(C#N)c(N3CCN(C(=O)CCO)[C@H](C(C)C)C3)nc2C2CC2)ccn1` [Compound 721, (R)-2-cyclopropyl-6-(4-(3-hydroxypropanoyl)-3-isopropylpiperazin-1-yl)-2′-vinyl-3,4′-bipyridine-5-carbonitrile], for which the IC50 on IDH1 R132H, in the assay with U87MG cells and in the assay with HT1080 cells was < 500 nM each time.

On to `CCOC1CC1C(=O)N1CCN(c2nc(C3CC3)c(-c3cccc4cnccc34)cc2C#N)C[C@H]1C1CC1` (stereo partly drawn) [Compound 481], for which the half-maximal inhibitory concentration (IC50) at IDH1 R132H, with U87MG cells and in the assay with HT1080 cells was < 500 nM in each case.

Consider `COCCC(=O)N1CCN(c2nc(C3CC3)c(-c3cccc(CNS(C)(=O)=O)c3)c(C)c2C#N)C[C@H]1C` [Compound 335, (R)—N-(3-{5-cyano-2-cyclopropyl-6-[4-(3-methoxy-propionyl)-3-methyl-piperazin-1-yl]-4-methyl-pyridin-3-yl}-benzyl)-methanesulfonamide], for which the IC50 at IDH1 R132H is < 500 nM; in the assay with U87MG cells, < 500 nM; with HT1080 cells, 500 to 1000 nM.

As to `C=Cc1nccc2ccc(-c3cc(C#N)c(N4CCN(C(=O)C5CC5)[C@H](C5CC5)C4)nc3C3CC3)cc12` [Compound 710, (R)-2-(4-(cyclopropanecarbonyl)-3-cyclopropylpiperazin-1-yl)-6-cyclopropyl-5-(1-vinylisoquinolin-7-yl)nicotinonitrile], the IC50 at IDH1 R132H, in the assay with U87MG cells and in the assay with HT1080 cells was < 500 nM in each case.
